Tests used:
hGPR119 = molecular target: T1, hGPR119 (Homo sapiens, UniProt Q8TDV5); assay: HTRF cAMP assay in CHO-K1 cells stably expressing the GPR119 receptor; assay type: cell-based
T1 construct: expressed in transfected cells
T1 sequence (Q8TDV5 2-335 limits assumed): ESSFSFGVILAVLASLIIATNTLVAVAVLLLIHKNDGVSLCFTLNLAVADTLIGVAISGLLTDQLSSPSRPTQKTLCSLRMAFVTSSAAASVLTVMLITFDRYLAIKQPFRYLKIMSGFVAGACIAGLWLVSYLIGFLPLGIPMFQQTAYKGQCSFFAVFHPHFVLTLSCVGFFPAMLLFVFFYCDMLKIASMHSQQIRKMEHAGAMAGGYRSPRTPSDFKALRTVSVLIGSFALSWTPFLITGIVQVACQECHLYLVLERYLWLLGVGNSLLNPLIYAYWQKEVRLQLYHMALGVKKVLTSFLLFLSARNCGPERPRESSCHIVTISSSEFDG
Protocol: GPR119 agonists were evaluated in an HTRF® cAMP detection assay according to the manufacturer's instructions (Cisbio, cAMP Dynamic 2 Assay Kit; #62AM4PEJ) using CHO-K1 cells stably expressing the GPR119 receptor. Briefly, CHO-K1 cells were transduced with a lentiviral vector encoding the nucleotide sequence of GPR119 (NCBI mRNA and protein reference sequences: NM_178471.2 & NP_848566, (GPR119 has also been referred to as Glucose-Dependent Insulinotropic Receptor (GDIR)). The N-terminus of the GPR119 nucleotide sequence was modified to replace the first, methionine-coding codon with a nucleotide sequence coding for a standard, nine amino acid, hemagglutinin tag. Following transduction, cells expressing the GPR119 receptor were isolated and a single clone was isolated following standard dilution-cloning procedures. On the day of the assay, cultured CHO-GPR119 cells were harvested, suspended in assay buffer and plated into 384-well assay plates (PerkinElmer Proxiplate #6008280) at a density of 2,000 cells per well. A cAMP standard curve was added to each plate. Test compounds were solubilized in DMSO, serially diluted in DMSO and then diluted in assay buffer before adding to the cells. Test compounds were evaluated in triplicate, using 10-point, 5-fold serial dilutions starting at 10 μM. The final DMSO concentration in the assay was 0.5%. Compounds and cells were incubated for 1 h at room temperature and then detection reagents were added to each well (cAMP-D2 in cell lysis buffer, followed by europium cryptate-labeled anti-cAMP antibody). Plates were then incubated at room temperature for 1 h prior to reading. Time-resolved fluorescence measurements were collected on PerkinElmer Envision™ or BMG Pherastar™ microplate readers. The compound N-(2-fluoro-4-(methylsulfonyl)phenyl)-6-(4-(3-isopropyl-1,2,4-oxadiazol-5-yl)piperidin-1-yl)-5-nitropyrimidin-4-amine was used as a positive control in each runset while assay buffer containing 0.5% DMSO was used as the negative control. The HTRF® assay was used to determine EC50 values for GPR119 agonists.

Male 129SVE mice [1] = assay: In vivo incretin hormone GIP release (plasma total GIP, ELISA); details: 3 or 30 mpk p.o., blood sample after 45 min
Protocol: Male 129SVE mice (approximately 8-week old) were fasted for 18 h and randomly grouped (n=6) to receive a GPR119 agonist (Compound 8) at 3 or 30 mpk dose (mg/kg body weight). Compound 8 were delivered orally via a gavage needle (p.o., volume at 4 mL/kg), and after 45 min a blood sample was collected to determine plasma total GIP levels. A separate group received vehicle (PET: 80% PEG:10% Ethanol:10% Tween80™) as control. Plasma GIP levels were determined using a Total GIP ELISA kit from Millipore.

Male 129SVE mice [2] = assay: Oral glucose tolerance test (oGTT) in male 129SVE mice; assay type: in vivo; details: for plasma glucose level, Mean: oGTT, in mg/dL (unit assumed)
Protocol: Male 129SVE mice (approximately 8-week old) were fasted for 18 h and randomly grouped (n=6) to receive a GPR119 agonist (Compound 8) at 3, or 30 mg/kg (mg/kg body weight). The compound was delivered orally via a gavage needle (p.o., volume at 4 mL/kg) 30 minutes prior to glucose bolus (3 g/kg) (time=−30 min in FIG. 1), with a separate group receiving vehicle (20% hydroxypropyl-beta-cyclodextrin) as control. At time 0 min the glucose bolus was administered. Levels of blood glucose were assessed using a glucometer (One-Touch Ultra™, LifeScan) at time −30 minute (prior to compound administration), at 0 min (at time when glucose bolus was given), and at 20, 40, 60, 120 minutes post glucose bolus. The plasma glucose level (Table 1) and glucose excursion curve (FIG. 1) are shown. Glucose excursion AUC (area under the curve) reduction in compound treated animals relative to vehicle control is given in FIG. 2.

CC(C)(C)OC(=O)N1CCC(CO[C@H]2CC[C@H](c3ccc(S(C)(=O)=O)cc3)CC2)CC1 [Compound 1, tert-Butyl 4-((4-(4-(Methylsulfonyl)phenyl)cyclohexyloxy)methyl)piperidine-1-carboxylate]
EC50 (hGPR119): 16 nM

CCc1cnc(N2CCC(CO[C@H]3CC[C@H](c4ccc(S(C)(=O)=O)cc4F)CC3)CC2)nc1 [Compound 8, 5-Ethyl-2-(4-(((1r,4r)-4-(2-fluoro-4-(methylsulfonyl)phenyl)cyclohexyloxy)methyl)piperidin-1-yl)pyrimidine]
effect on plasma total GIP release (Male 129SVE mice [1]): stimulates the release of GIP
effect on blood glucose after glucose challenge (Male 129SVE mice [2]; 129SVE mice, 3 or 30 mg/kg p.o., 30 min prior to glucose bolus (3 g/kg)): lowered blood glucose
plasma glucose level, Mean (Male 129SVE mice [2]; 3 mpk p.o., 20 min post glucose bolus): 201.3
plasma glucose level, Mean (Male 129SVE mice [2]; 3 mpk p.o., 40 min post glucose bolus): 250.2
plasma glucose level, Mean (Male 129SVE mice [2]; 3 mpk p.o., 60 min post glucose bolus): 262.8
plasma glucose level, Mean (Male 129SVE mice [2]; 3 mpk p.o., 120 min post glucose bolus): 163.3
plasma glucose level, Mean (Male 129SVE mice [2]; 3 mpk p.o., time 0 min relative to glucose bolus): 112.5
plasma glucose level, Mean (Male 129SVE mice [2]; 3 mpk p.o., time −30 min relative to glucose bolus (prior to compound administration)): 88.7
plasma glucose level, Mean (Male 129SVE mice [2]; 30 mpk p.o., 20 min post glucose bolus): 163.5
plasma glucose level, Mean (Male 129SVE mice [2]; 30 mpk p.o., 40 min post glucose bolus): 204.2
plasma glucose level, Mean (Male 129SVE mice [2]; 30 mpk p.o., 60 min post glucose bolus): 193.2
plasma glucose level, Mean (Male 129SVE mice [2]; 30 mpk p.o., 120 min post glucose bolus): 107.5
plasma glucose level, Mean (Male 129SVE mice [2]; 30 mpk p.o., time 0 min relative to glucose bolus): 96.0
plasma glucose level, Mean (Male 129SVE mice [2]; 30 mpk p.o., time −30 min relative to glucose bolus (prior to compound administration)): 72.2

CC(C)OC(=O)N1CCC(CO[C@H]2CC[C@H](c3ccc(S(C)(=O)=O)cc3F)CC2)CC1 [Compound 11, Isopropyl 4-(((1r,4r)-4-(2-Fluoro-4-(methylsulfonyl)phenyl)cyclohexyloxy)methyl)piperidine-1-carboxylate]
EC50 (hGPR119): 21 nM

CC(C)(C)OC(=O)N1CCC(CO[C@H]2CC[C@@H](c3cnc(S(C)(=O)=O)cn3)CC2)CC1 [Compound 12, tert-Butyl 4-((-4-(5-(Methylsulfonyl)pyrazin-2-yl)cyclohexyloxy)methyl)piperidine-1-carboxylate]
EC50 (hGPR119): 707 nM

CC(C)(F)c1noc(N2CCC(CO[C@H]3CC[C@H](c4ccc(S(C)(=O)=O)cc4F)CC3)CC2)n1 [Compound 16, 5-(4-(((1r,4r)-4-(2-Fluoro-4-(methylsulfonyl)phenyl)cyclohexyloxy)methyl)piperidin-1-yl)-3-(2-fluoropropan-2-yl)-1,2,4-oxadiazole]
EC50 (hGPR119): 38 nM

CS(=O)(=O)c1ccc([C@H]2CC[C@H](OCC3CCN(c4ncc(C(F)(F)F)cn4)CC3)CC2)nc1 [Compound 18]
EC50 (hGPR119): 134 nM

CC(C)c1noc(N2CCC(COC3CC=C(c4ccc(S(C)(=O)=O)cc4)CC3)CC2)n1 (stereo not shown) [Compound 23, 3-Isopropyl-5-(4-((4-(4-(Methylsulfonyl)phenyl)cyclohex-3-enyloxy)methyl)piperidin-1-yl)-1,2,4-oxadiazole]
EC50 (hGPR119): 15 nM

Cc1nc(S(C)(=O)=O)ccc1[C@H]1CC[C@H](OCC2CCN(c3ncc(C(F)(F)F)cn3)CC2)CC1 [Compound 31, 2-(4-(((1r,4r)-4-(2-Methyl-6-(methylsulfonyl)pyridin-3-yl)cyclohexyloxy)methyl)piperidin-1-yl)-5-(trifluoromethyl)pyrimidine]
EC50 (hGPR119): 42 nM

CC(C)OC(=O)N1CCC(CO[C@H]2CC[C@H](c3ccc(S(C)(=O)=O)cc3)CC2)CC1 [Compound 38, Isopropyl 4-((4-(4-(Methylsulfonyl)phenyl)cyclohexyloxy)methyl)piperidine-1-carboxylate]
EC50 (hGPR119): 57 nM

CSc1ccc([C@H]2CC[C@H](OCC3CCN(C(=O)OC(C)(C)C)CC3)CC2)cc1 [Compound 41, tert-Butyl 4-((4-(4-(Methylthio)phenyl)cyclohexyloxy)methyl)piperidine-1-carboxylate]
EC50 (hGPR119): 505 nM

CC(C)(C)OC(=O)N1CCC(CO[C@H]2CC[C@H](c3ccc(S(C)(=O)=O)cc3F)CC2)CC1 [Compound 42, tert-Butyl 4-((4-(2-Fluoro-4-(methylsulfonyl)phenyl)cyclohexyloxy)methyl)piperidine-1-carboxylate]
EC50 (hGPR119): 6.4 nM

CC(C)(C)OC(=O)N1CCC(CO[C@H]2CC[C@H](c3ccncc3C#N)CC2)CC1 [Compound 49, tert-Butyl 4-(((1r,4r)-4-(3-Cyanopyridin-4-yl)cyclohexyloxy)methyl)piperidine-1-carboxylate]
EC50 (hGPR119): 1030 nM

CC(C)(C)OC(=O)N1CCC(COC2CC=C(c3ccncc3C#N)CC2)CC1 (stereo not shown) [Compound 50, tert-Butyl 4-((4-(3-Cyanopyridin-4-yl)cyclohex-3-enyloxy)methyl)piperidine-1-carboxylate]
EC50 (hGPR119): 38 nM

CC(C)(C)OC(=O)N1CCC(CO[C@H]2CC[C@H](c3ccncc3F)CC2)CC1 [Compound 56, tert-Butyl 4-(((1r,4r)-4-(3-Fluoropyridin-4-yl)cyclohexyloxy)methyl)piperidine-1-carboxylate]
EC50 (hGPR119): 63 nM

CS(=O)(=O)c1ccc([C@H]2CC[C@H](OCC3CCN(Cc4nc(C(F)(F)F)no4)CC3)CC2)c(F)c1 [Compound 60, 5-((4-(((1r,4r)-4-(2-Fluoro-4-(methylsulfonyl)phenyl)cyclohexyloxy)methyl)piperidin-1-yl)methyl)-3-(trifluoromethyl)-1,2,4-oxadiazole]
EC50 (hGPR119): 200 nM
